Where two headings read alike, the source gives them in different places.
Key:
human H1 receptors = molecular target: T1, human H1 receptors (Homo sapiens, UniProt P35367); assay: hH1 receptor radioligand binding ([3H]Pyrilamine); conditions: for Ki: pKi reported on a scale of 1 through 5; for binding to H1: in words
T1 construct: expressed in transfected cells; host or cells: Chinese hamster ovary cells (membranes)
Outline: (§1)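 Displacement of one fixed radioligand concentration by graded test compound concentrations was measured in receptor-bearing tissue or plasma membrane fractions at equilibrium. Filtration removed displaced radioligand. Concentration-response data, after subtracting nonspecific binding measured with a reference blocker, were used to derive affinity.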

[1] = molecular target: T2, human D2s dopamine receptors (Homo sapiens, UniProt P14416); assay: hD2S receptor radioligand binding ([3H]spiperone); conditions: for Ki: pKi reported on a scale of 1 through 5
T2 construct: expressed in transfected cells; host or cells: Chinese hamster ovary cells (membranes)
Outline: as §1

[2] = molecular target: T3, human D2L dopamine receptors (Homo sapiens, UniProt P14416); assay: hD2L receptor radioligand binding ([3H]spiperone); conditions: for Ki: pKi reported on a scale of 1 through 5, read-out: D2L (pKi) (converted)
T3 construct: expressed in transfected cells; host or cells: insect Sf9 cells (membranes)
Outline: as §1

5-HT2A receptor = molecular target: T4, 5-HT2A receptor (Rattus norvegicus, UniProt P14842); assay: cell-based
T4 construct: Eight strips of tissue (0.5 cm long) were cut. and were mounted in 10 ml organ baths; tissue Charles River Laboratories; host or cells: rat aorta strips, endothelium removed
Outline: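 Agonist EC50 and antagonist pKB or pA2 values come from curves fitted by Parker–Waud and from EC50 concentration-ratios with versus without antagonist. Tissue: rat aorta strips, endothelium removed, 37° C Krebs pH 7.4 with 95% O2/5% CO2, 2 g tension; response as % of 5-HT maximum.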

human 5HT1A receptors = molecular target: T5, human 5HT1A receptors (Homo sapiens, UniProt P08908); assay: h5-HT1A receptor radioligand binding ([3H]8OH-DPAT); conditions: for Ki: pKi reported on a scale of 1 through 5; for binding to 5-HT1A: in words
T5 construct: expressed in transfected cells; host or cells: Chinese hamster ovary cells (membranes)
T5 sequence (P08908 1-422): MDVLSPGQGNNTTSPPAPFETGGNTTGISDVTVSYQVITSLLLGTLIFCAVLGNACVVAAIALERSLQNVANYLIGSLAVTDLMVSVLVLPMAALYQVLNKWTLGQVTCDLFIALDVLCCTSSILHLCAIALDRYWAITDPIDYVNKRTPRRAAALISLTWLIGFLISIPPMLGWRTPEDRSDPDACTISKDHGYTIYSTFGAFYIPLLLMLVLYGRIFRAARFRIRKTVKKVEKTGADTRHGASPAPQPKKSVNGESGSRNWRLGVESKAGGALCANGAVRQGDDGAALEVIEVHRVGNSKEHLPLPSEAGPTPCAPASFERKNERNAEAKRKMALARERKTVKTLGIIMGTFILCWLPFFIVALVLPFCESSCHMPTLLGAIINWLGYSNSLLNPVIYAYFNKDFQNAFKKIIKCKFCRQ
Outline: as §1

human M1 receptors = molecular target: T6, human M1 receptors (Homo sapiens, UniProt P11229); assay: hM1 receptor radioligand binding ([3H]NMS); conditions: for Ki: pKi reported on a scale of 1 through 5; for affinity to M1 receptors: in words
T6 construct: expressed in transfected cells; host or cells: Chinese hamster ovary cells (membranes)
T6 sequence (P11229 1-460): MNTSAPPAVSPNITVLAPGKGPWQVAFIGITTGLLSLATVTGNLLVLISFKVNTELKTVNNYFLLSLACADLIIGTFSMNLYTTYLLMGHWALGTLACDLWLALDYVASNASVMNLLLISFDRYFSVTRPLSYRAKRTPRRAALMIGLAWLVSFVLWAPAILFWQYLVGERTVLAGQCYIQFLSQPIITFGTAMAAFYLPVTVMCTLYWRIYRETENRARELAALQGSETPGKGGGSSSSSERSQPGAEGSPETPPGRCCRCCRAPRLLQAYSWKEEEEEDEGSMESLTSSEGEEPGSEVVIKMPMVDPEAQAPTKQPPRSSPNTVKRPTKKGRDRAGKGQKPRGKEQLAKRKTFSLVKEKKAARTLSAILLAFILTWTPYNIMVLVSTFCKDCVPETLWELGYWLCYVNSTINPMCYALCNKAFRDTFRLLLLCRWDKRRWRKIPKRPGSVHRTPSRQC
Outline: as §1

[3] = read-out: 5HT2A (pKb) (converted)
[4] = relative to clozapine, in words

T3 sequence (P14416 whole entry): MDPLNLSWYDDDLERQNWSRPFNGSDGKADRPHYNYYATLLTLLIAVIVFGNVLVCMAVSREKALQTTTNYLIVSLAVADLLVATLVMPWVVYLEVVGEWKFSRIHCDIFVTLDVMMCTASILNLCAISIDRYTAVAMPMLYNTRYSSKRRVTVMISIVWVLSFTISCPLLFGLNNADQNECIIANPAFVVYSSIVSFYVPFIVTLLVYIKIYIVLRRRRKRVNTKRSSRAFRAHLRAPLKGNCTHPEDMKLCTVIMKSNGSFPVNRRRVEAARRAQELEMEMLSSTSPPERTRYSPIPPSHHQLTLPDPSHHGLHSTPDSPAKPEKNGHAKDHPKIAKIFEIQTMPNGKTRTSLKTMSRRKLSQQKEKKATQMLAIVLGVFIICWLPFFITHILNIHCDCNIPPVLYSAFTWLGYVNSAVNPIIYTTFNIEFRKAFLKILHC
T1 sequence (P35367 whole entry): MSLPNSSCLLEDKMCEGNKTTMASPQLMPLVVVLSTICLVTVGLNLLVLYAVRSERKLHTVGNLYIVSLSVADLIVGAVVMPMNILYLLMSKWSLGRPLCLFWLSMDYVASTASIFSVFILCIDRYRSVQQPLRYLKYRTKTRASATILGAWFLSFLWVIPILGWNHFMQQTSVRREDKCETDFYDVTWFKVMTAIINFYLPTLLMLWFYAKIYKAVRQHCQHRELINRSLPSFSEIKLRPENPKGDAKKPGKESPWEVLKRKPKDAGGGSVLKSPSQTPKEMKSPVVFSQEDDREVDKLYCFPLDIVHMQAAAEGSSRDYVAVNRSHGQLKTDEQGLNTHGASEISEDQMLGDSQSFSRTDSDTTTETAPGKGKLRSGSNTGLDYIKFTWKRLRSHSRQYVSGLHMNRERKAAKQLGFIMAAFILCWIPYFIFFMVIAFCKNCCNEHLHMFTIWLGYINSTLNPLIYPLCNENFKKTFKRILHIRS
T2 sequence (P14416 1-414 isoform P14416-2): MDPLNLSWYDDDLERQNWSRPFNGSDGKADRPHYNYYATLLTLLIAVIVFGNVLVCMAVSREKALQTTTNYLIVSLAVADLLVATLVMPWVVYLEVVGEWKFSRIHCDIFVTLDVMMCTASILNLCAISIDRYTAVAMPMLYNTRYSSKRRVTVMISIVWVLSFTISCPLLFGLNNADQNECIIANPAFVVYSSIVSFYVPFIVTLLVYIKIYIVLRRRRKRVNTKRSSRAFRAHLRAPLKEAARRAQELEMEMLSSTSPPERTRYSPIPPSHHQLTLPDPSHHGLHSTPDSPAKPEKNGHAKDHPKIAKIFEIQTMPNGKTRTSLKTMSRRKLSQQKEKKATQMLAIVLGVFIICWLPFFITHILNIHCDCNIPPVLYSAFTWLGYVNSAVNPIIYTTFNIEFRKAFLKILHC
T4 sequence (P14842 whole entry): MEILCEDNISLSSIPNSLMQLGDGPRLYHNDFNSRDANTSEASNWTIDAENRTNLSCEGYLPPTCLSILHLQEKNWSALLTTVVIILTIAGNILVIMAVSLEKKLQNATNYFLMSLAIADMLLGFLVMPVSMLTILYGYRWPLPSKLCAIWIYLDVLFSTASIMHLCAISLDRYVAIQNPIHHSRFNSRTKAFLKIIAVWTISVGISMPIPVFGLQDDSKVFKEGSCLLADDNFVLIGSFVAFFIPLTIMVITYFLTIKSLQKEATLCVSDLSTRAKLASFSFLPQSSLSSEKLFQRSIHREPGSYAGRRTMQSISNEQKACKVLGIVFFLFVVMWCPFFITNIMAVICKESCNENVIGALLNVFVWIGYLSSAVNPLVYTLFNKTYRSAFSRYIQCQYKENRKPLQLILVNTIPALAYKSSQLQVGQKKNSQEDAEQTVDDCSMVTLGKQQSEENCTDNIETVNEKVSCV

SMILES	Ki (human H1 receptors) [nM]	Ki [1] [nM]	Ki [2] [nM]	Kb (5-HT2A receptor; [3]) [nM]	Ki (human 5HT1A receptors) [nM]	Ki (human M1 receptors) [nM]	binding to H1 (human H1 receptors)	affinity for the H1 receptors, fold lower than clozapine (human H1 receptors; relative to clozapine) [fold]	IC50 binding affinity for D2S receptors ([1]; in words)	binds to D2S dopamine receptors ([1]; in words)	affinity for the D2S receptor compared with clozapine [1, 4]	IC50 binding affinity for D2L receptors ([2]; in words)	binds to D2L dopamine receptors ([2]; in words)	affinity for the D2L receptor compared with clozapine [2, 4]	Kb (5-HT2A receptor; rat aorta, Schild plot vs 5-HT, read-out: pA2, antagonist for 5-HT2A receptors (converted)) [nM]	binding to 5-HT1A (human 5HT1A receptors)	affinity for the 5-HT1A receptors, fold higher than clozapine (human 5HT1A receptors; relative to clozapine) [fold]	affinity to M1 receptors (human M1 receptors)	affinity for the 5-HT2A receptors, fold lower than Compound K (5-HT2A receptor; relative to Compound K) [fold]	Kb (5-HT2A receptor; pKb reported on a scale of 1 through 5, read-out: 5HT2A (pKb) (converted)) [nM]
CC(C)OC(=O)CC1CN(C2=Nc3cc(Cl)ccc3Oc3ccccc32)CCN1 (centres unmarked) [L, (E)-isopropyl 2-(4-(8-chlorodibenzo[b,f][1,4]oxazepin-11-yl)piperazin-2-yl)acetate]	100 to 977	2510 to 9770	631 to 2450	10 to 30.9	100 to 977	> 10000	–	–	–	–	–	–	–	–	–	–	–	–	–	–
CC(C)OC(=O)CC1CN(C2=Nc3ccc(F)cc3Oc3ccccc32)CCN1 (centres unmarked) [M, (E)-isopropyl 2-(4-(7-fluorodibenzo[b,f][1,4]oxazepin-11-yl)piperazin-2-yl)acetate]	1000 to 9770	> 10000	2510 to 9770	10 to 30.9	100 to 977	> 10000	–	–	–	–	–	–	–	–	–	–	–	–	–	–
CCOC(=O)C[C@H]1CN(C2=Nc3cc(Cl)ccc3Oc3ccccc32)CCN1 [Compound K, (S,E)-ethyl 2-(4-(8-chlorodibenzo[b,f][1,4]oxazepin-11-yl)piperazin-2-yl)acetate]	100 to 977	631 to 2450	631 to 2450	3.16 to 9.77	100 to 977	> 10000	bind	69	low micromolar	Binds	comparable	low micromolar	Binds	comparable	3.16	bind	4	very low affinity	–	–
O=C(O)C[C@H]1CN(C2=Nc3cc(Cl)ccc3Oc3ccccc32)CCN1 [Compound Q, (S,E)-2-(4-(8-chlorodibenzo[b,f][1,4]oxazepin-11-yl)piperazin-2-yl)acetic acid]	100 to 977	> 10000	> 10000	10 to 30.9	100 to 977	> 10000	bind	–	–	not	–	–	not	–	–	bind	–	very low affinity	8	–
CCOC(=O)CC1CN(C2=Nc3cc(Cl)ccc3Oc3ccccc32)CCN1 (centres unmarked) [A, (E)-ethyl 2-(4-(8-chlorodibenzo[b,f][1,4]oxazepin-11-yl)piperazin-2-yl)acetate]	100 to 977	2510 to 9770	631 to 2450	10 to 30.9	100 to 977	5010 to 9770	–	–	–	–	–	–	–	–	–	–	–	–	–	–
O=C(C[C@H]1CN(C2=Nc3cc(Cl)ccc3Oc3ccccc32)CCN1)OC1CCOCC1 [DV, (S,E)-tetrahydro-2H-pyran-4-yl 2-(4-(8-chlorodibenzo[b,f][1,4]oxazepin-11-yl)piperazin-2-yl)acetate]	1000 to 9770	631 to 2450	2510 to 9770	3.16 to 9.77	10 to 97.7	> 10000	–	–	–	–	–	–	–	–	–	–	–	–	–	–
O=C(C[C@H]1CN(C2=Nc3cc(Cl)ccc3Oc3ccccc32)CCN1)O[C@H]1CCOC1 [EQ, (S)-tetrahydrofuran-3-yl 2-((S)-4-((E)-8-chlorodibenzo[b,f][1,4]oxazepin-11-yl)piperazin-2-yl)acetate]	10 to 97.7	631 to 2450	–	3.16 to 9.77	10 to 97.7	5010 to 9770	–	–	–	–	–	–	–	–	–	–	–	–	–	–
CCOC(=O)C[C@H]1CN(C2=Nc3cc(Cl)ccc3Oc3ccccc32)CCN1CCC(C)C [ER, (S,E)-ethyl 2-(4-(8-chlorodibenzo[b,f][1,4]oxazepin-11-yl)-1-isopentylpiperazin-2-yl)acetate]	100 to 977	2510 to 9770	–	31.6 to 97.7	1000 to 9770	> 10000	–	–	–	–	–	–	–	–	–	–	–	–	–	–
O=C(C[C@H]1CN(C2=Nc3cc(Cl)ccc3Oc3ccccc32)CCN1)OC1CCCC1 [DR, (S,E)-cyclopentyl 2-(4-(8-chlorodibenzo[b,f][1,4]oxazepin-11-yl)piperazin-2-yl)acetate]	1000 to 9770	631 to 2450	631 to 2450	10 to 30.9	10 to 97.7	1260 to 2450	–	–	–	–	–	–	–	–	–	–	–	–	–	–
CN1CCN(C2=Nc3cc(Cl)ccc3Oc3ccccc32)C[C@@H]1CC(=O)NCC(F)(F)C(F)(F)F [EU, (S,E)-2-(4-(8-chlorodibenzo[b,f][1,4]oxazepin-11-yl)-1-methylpiperazin-2-yl)-N-(2,2,3,3,3-pentafluoropropyl)acetamide]	100 to 977	2510 to 9770	–	–	1000 to 9770	> 10000	–	–	–	–	–	–	–	–	–	–	–	–	–	> 100
CCC(C)OC(=O)C[C@H]1CN(C2=Nc3cc(Cl)ccc3Oc3ccccc32)CCN1C (stereo partly drawn) [DY, sec-butyl 2-((S)-4-((E)-8-chlorodibenzo[b,f][1,4]oxazepin-11-yl)-1-methylpiperazin-2-yl)acetate]	10 to 97.7	2510 to 9770	–	10 to 30.9	1000 to 9770	> 10000	–	–	–	–	–	–	–	–	–	–	–	–	–	–
CCOC(=O)CC1CN(C2=Nc3ccc(F)cc3Oc3ccccc32)CCN1 (centres unmarked) [J, (E)-ethyl 2-(4-(7-fluorodibenzo[b,f][1,4]oxazepin-11-yl)piperazin-2-yl)acetate]	100 to 977	2510 to 9770	2510 to 9770	31.6 to 97.7	100 to 977	> 10000	–	–	–	–	–	–	–	–	–	–	–	–	–	–

Source: patent US20120178738A1, “DIBENZO [B,F] [1,4]OXAZAPINE COMPOUNDS” (ARYX THERAPEUTICS, INC., priority 2007, published 2012)
